Values of other authors as cited in patent publication US20090136558A1, “Anti-Restenosis Coatings and Uses Thereof” (VASOTECH, INC., priority 2004, published 2009).

Conditions: through specific binding to individual binding proteins

**Q.** For `CO[C@H]1C[C@@H]2CC[C@@H](C)[C@@](O)(O2)C(=O)C(=O)N2CCCC[C@H]2C(=O)O[C@H]([C@H](C)C[C@@H]2CC[C@@H](O)[C@H](OC)C2)CC(=O)[C@H](C)/C=C(\C)[C@@H](O)[C@@H](OC)C(=O)[C@H](C)C[C@H](C)/C=C/C=C/C=C/1C` [sirolimus, Sirolimus], which “retention in blood vessel wall after releasing from stent” value is on record?
**A.** retained well in blood vessel wall for up to three days
